Laboratory results taken from paper PMC4312198 (Biomaterials, 2014).
Blank lines part the entries; values can stand above or below the compound they belong to.

Experiments:
SKOV-3 tumor xenograft = assay: NIRF optical animal imaging; parameters: species or system mouse; conditions: in vivo NIRF after tail vein injection
Hela cells = assay: MTS cytotoxicity and combination index, Hela; format: cell-based; conditions: 72 h
[1] = system: SKOV-3 ovarian cancer xenografts; assay: In vivo anticancer efficacy
[2] = Plasma pharmacokinetics of platinum
[3] = system: SKOV3 ovarian cancer tumor; assay: Tissue biodistribution of Pt; format: in vivo, mouse; conditions: 48 h post-injection, CDDP 6 mg/kg i.v.
[4] = system: ES-2 ovarian cancer cells; assay: MTS cytotoxicity and combination index, ES-2; format: cell-based
[5] = system: SKOV-3 ovarian cancer cells; assay: MTS cytotoxicity and combination index, SKOV-3; format: cell-based, human
mouse models = mouse models ref 37, 38; cited from earlier work
[6] = Pt in plasma, two compartment model, i.v.

Tumor fluorescence in vivo (SKOV-3 tumor xenograft): very weak tumor fluorescence
SMILES: CCCCCCCCCCCCCCCCCCN1/C(=C/C=C/C=C/C2=[N+](CCCCCCCCCCCCCCCCCC)c3ccccc3C2(C)C)C(C)(C)c2ccccc21.[O-][Cl+3]([O-])([O-])[O-] [free DiD]

SMILES: [NH2][Pt]([NH2])([Cl])[Cl] [CDDP, Cisplatin]
IC50, as CDDP concentration (Hela cells; Hela, first figure of x/y cells): 2.427 µg/mL
Medium survival time ([1]; 4 mg/kg CDDP): 15 days
Body weight loss ([1]; 4 mg/kg CDDP i.v. day 0, 4, 8, on day 12): exceeded 20%
WBC counting vs PBS control ([1]; 4 mg/kg CDDP, day 7 after last injection): significantly decreased
Animal death due to severe side effects ([1]; 4 mg/kg CDDP, died on day 12, 13, 15, 16 and 17): all animals
Pt of injected dose remaining in plasma ([2]; 30 min after i.v. injection): 5%
Pt of injected dose remaining in plasma ([2]; 24 h after i.v. injection): less than 1%
CL2 [2, 6]: 9.3217 mL/min/kg
t1/2α [2, 6]: 2.64 min
Clearance rate (Cl) relative to nanotherapeutics, both phases ([2]; mouse, in vivo): 20–25 fold
Kidney/tumor ratio of Pt concentrations [3]: 4
Liver/tumor ratio of Pt concentrations [3]: 2
IC50, as CDDP concentration ([4]; ES2, 72 h, first figure of x/y cells): 0.92 µg/mL
IC50, as CDDP concentration ([5]; SKOV-3, 72 h, first figure of x/y cells): 1.354 µg/mL
Maximum tolerated dose (MTD) (mouse models): ≤ 4 mg/kg

SMILES: CC(=O)O[C@H]1C(=O)[C@@]2(C)[C@H]([C@H](OC(=O)c3ccccc3)[C@]3(O)C[C@H](OC(=O)[C@H](O)[C@@H](NC(=O)c4ccccc4)c4ccccc4)C(C)=C1C3(C)C)[C@]1(OC(C)=O)CO[C@@H]1C[C@@H]2O [PTX, paclitaxel]
IC50 (Hela cells; Homo sapiens, HeLa, read-out: IC50, as PTX concentration): 0.02 µg/mL
IC50 ([4]; 72 h, read-out: IC50, as PTX concentration): 0.055 µg/mL
IC50 ([5]; Homo sapiens, SK-OV-3, 72 h, read-out: IC50, as PTX concentration): 0.032 µg/mL
